The supplement of paper PMC10883282
± gives the standard deviation of the averaged measurements.

Key:
Assay in all cases: relative viability vs DMSO control (72 h) (fraction); higher = more viable cells
[1] = system: G401
Summary of the method: (§1)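 Sarcoma cell lines in 384-well plates, seeded to reach 80–90% confluence, were given compound after 24 h and kept 72 h at 37 °C, 5% CO2, with 0.1% DMSO vehicle and a 5 µM positive control. Relative viability came from ATPLite as percent growth, averaged over up to triplicate wells. On the rescaled values, 1 equals full and 0 equals none.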

[2] = system: HS729
Summary of the method: as §1

[3] = system: SYO-1
Summary of the method: as §1

[4] = system: SW872
Summary of the method: as §1

[5] = system: VA-ES-BJ
Summary of the method: as §1

[6] = system: A204
Summary of the method: as §1

[7] = system: SK-ES-1
Summary of the method: as §1

[8] = system: SK-LMS-1
Summary of the method: as §1

[9] = system: SW684
Summary of the method: as §1

[10] = system: MES-SA
Summary of the method: as §1

[11] = system: RD
Summary of the method: as §1

[12] = system: KHOS-NP
Summary of the method: as §1

Cc1ccc(Nc2nccc(N(C)c3ccc4c(C)n(C)nc4c3)n2)cc1S(N)(=O)=O [Pazopanib]
Conditions | relative viability
[1], 0.00017 µM | 0.952 ± 0.019
[1], 0.00051 µM | 1.01 ± 0.017
[1], 0.00152 µM | 0.994 ± 0.045
[1], 0.00457 µM | 0.983 ± 0.072
[1], 0.01372 µM | 1 ± 0.04
[1], 0.04115 µM | 0.949 ± 0.019
[1], 0.1235 µM | 0.909 ± 0.017
[1], 0.3704 µM | 0.864 ± 0.027
[1], 1.111 µM | 0.857 ± 0.02
[1], 3.333 µM | 0.696 ± 0.028
[1], 10 µM | 0.449 ± 0.035
[2], 0.00017 µM | 0.9 ± 0.059
[2], 0.00051 µM | 0.922 ± 0.033
[2], 0.00152 µM | 0.876 ± 0.046
[2], 0.00457 µM | 0.879 ± 0.013
[2], 0.01372 µM | 0.917 ± 0.033
[2], 0.04115 µM | 0.8727 ± 0.0081
[2], 0.1235 µM | 0.843 ± 0.024
[2], 0.3704 µM | 0.793 ± 0.014
[2], 1.111 µM | 0.724 ± 0.031
[2], 3.333 µM | 0.7 ± 0.047
[2], 10 µM | 0.554 ± 0.057
[3], 0.00017 µM | 0.919 ± 0.036
[3], 0.00051 µM | 0.901 ± 0.014
[3], 0.00152 µM | 0.882 ± 0.051
[3], 0.00457 µM | 0.862 ± 0.024
[3], 0.01372 µM | 0.823 ± 0.012
[3], 0.04115 µM | 0.777 ± 0.069
[3], 0.1235 µM | 0.685 ± 0.036
[3], 0.3704 µM | 0.576 ± 0.032
[3], 1.111 µM | 0.506 ± 0.019
[3], 3.333 µM | 0.471 ± 0.029
[3], 10 µM | 0.369 ± 0.011
[4], 0.00017 µM | 1 ± 0.015
[4], 0.00051 µM | 0.986 ± 0.026
[4], 0.00152 µM | 0.988 ± 0.015
[4], 0.00457 µM | 0.9911 ± 0.0071
[4], 0.01372 µM | 0.989 ± 0.018
[4], 0.04115 µM | 0.934 ± 0.065
[4], 0.1235 µM | 0.9475 ± 0.0033
[4], 0.3704 µM | 0.968 ± 0.019
[4], 1.111 µM | 0.984 ± 0.023
[4], 3.333 µM | 0.934 ± 0.029
[4], 10 µM | 0.694 ± 0.022
[5], 0.00017 µM | 1.04 ± 0.019
[5], 0.00051 µM | 1.05 ± 0.035
[5], 0.00152 µM | 1.07 ± 0.045
[5], 0.00457 µM | 1.05 ± 0.027
[5], 0.01372 µM | 1.06 ± 0.038
[5], 0.04115 µM | 1.07 ± 0.043
[5], 0.1235 µM | 1.08 ± 0.038
[5], 0.3704 µM | 1.12 ± 0.049
[5], 1.111 µM | 1.14 ± 0.055
[5], 3.333 µM | 1.12 ± 0.091
[5], 10 µM | 1.06 ± 0.018
[6], 0.00017 µM | 1.03 ± 0.024
[6], 0.00051 µM | 1.06 ± 0.082
[6], 0.00152 µM | 1.06 ± 0.019
[6], 0.00457 µM | 1.03 ± 0.034
[6], 0.01372 µM | 0.977 ± 0.067
[6], 0.04115 µM | 0.928 ± 0.082
[6], 0.1235 µM | 0.611 ± 0.13
[6], 0.3704 µM | 0.348 ± 0.0057
[6], 1.111 µM | 0.342 ± 0.025
[6], 3.333 µM | 0.294 ± 0.026
[6], 10 µM | 0.243 ± 0.046
[7], 0.00017 µM | 1.02 ± 0.043
[7], 0.00051 µM | 1.001 ± 0.0028
[7], 0.00152 µM | 1.02 ± 0.024
[7], 0.00457 µM | 1.03 ± 0.026
[7], 0.01372 µM | 1.02 ± 0.043
[7], 0.04115 µM | 1.02 ± 0.023
[7], 0.1235 µM | 1.02 ± 0.053
[7], 0.3704 µM | 1 ± 0.054
[7], 1.111 µM | 1.01 ± 0.035
[7], 3.333 µM | 0.916 ± 0.034
[7], 10 µM | 0.524 ± 0.041
[8], 0.00017 µM | 0.993 ± 0.037
[8], 0.00051 µM | 1 ± 0.013
[8], 0.00152 µM | 1.02 ± 0.027
[8], 0.00457 µM | 1.06 ± 0.021
[8], 0.01372 µM | 1.01 ± 0.026
[8], 0.04115 µM | 0.998 ± 0.045
[8], 0.1235 µM | 0.973 ± 0.027
[8], 0.3704 µM | 0.9626 ± 0.0087
[8], 1.111 µM | 0.981 ± 0.07
[8], 3.333 µM | 0.935 ± 0.025
[8], 10 µM | 0.776 ± 0.032
[9], 0.00017 µM | 1.13 ± 0.035
[9], 0.00051 µM | 1.13 ± 0.016
[9], 0.00152 µM | 1.19 ± 0.026
[9], 0.00457 µM | 1.15 ± 0.031
[9], 0.01372 µM | 1.15 ± 0.026
[9], 0.04115 µM | 1.129 ± 0.0043
[9], 0.1235 µM | 1.14 ± 0.042
[9], 0.3704 µM | 1.12 ± 0.028
[9], 1.111 µM | 1.16 ± 0.054
[9], 3.333 µM | 1.13 ± 0.024
[9], 10 µM | 0.878 ± 0.064
[10], 0.00017 µM | 0.9224 ± 0.0055
[10], 0.00051 µM | 0.925 ± 0.014
[10], 0.00152 µM | 0.931 ± 0.015
[10], 0.00457 µM | 0.934 ± 0.037
[10], 0.01372 µM | 0.933 ± 0.021
[10], 0.04115 µM | 0.928 ± 0.051
[10], 0.1235 µM | 0.922 ± 0.029
[10], 0.3704 µM | 0.95 ± 0.033
[10], 1.111 µM | 0.931 ± 0.016
[10], 3.333 µM | 0.824 ± 0.025
[10], 10 µM | 0.517 ± 0.015
[11], 0.00017 µM | 1.11 ± 0.064
[11], 0.00051 µM | 1.12 ± 0.065
[11], 0.00152 µM | 1.12 ± 0.068
[11], 0.00457 µM | 1.11 ± 0.061
[11], 0.01372 µM | 1.11 ± 0.049
[11], 0.04115 µM | 1.12 ± 0.047
[11], 0.1235 µM | 1.12 ± 0.065
[11], 0.3704 µM | 1.13 ± 0.087
[11], 1.111 µM | 1.12 ± 0.067
[11], 3.333 µM | 1.16 ± 0.079
[11], 10 µM | 1.1 ± 0.027
[12], 0.00017 µM | 1.04 ± 0.012
[12], 0.00051 µM | 1.05 ± 0.02
[12], 0.00152 µM | 1.038 ± 0.0067
[12], 0.00457 µM | 1.02 ± 0.013
[12], 0.01372 µM | 1.02 ± 0.027
[12], 0.04115 µM | 1.06 ± 0.026
[12], 0.1235 µM | 1.03 ± 0.021
[12], 0.3704 µM | 1.01 ± 0.015
[12], 1.111 µM | 0.99 ± 0.029
[12], 3.333 µM | 0.968 ± 0.021
[12], 10 µM | 0.719 ± 0.012
